The record followed here is ChEMBL document CHEMBL1201862, “PubChem BioAssay data set” (2004).

Molecules are shown by their SMILES.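 Values below derive from 48-hour exposures of cells grown in 96-well plates, with endpoints linearly interpolated between the two concentrations bracketing the appropriate inhibition level. At the GI50, growth is halved.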 Active and inactive are the calls of the source. Cut-off read from the data, not from the text of the source: active = GI50 up to about 1.1 µM and inactive = higher.

Test systems include T47D; SF-539; OVCAR-3; MDA-MB-435; UO-31; K562; HOP-62; BT-549; EKVX; SN12C; SK-OV-3; U-251; RXF 393; UACC-257; SF-268; CAKI-1; SNB-19; MDA-N; OVCAR-5; MOLT-4.
What all share (assay): NCI tumour cell line growth inhibition, 48 h

As for `Cc1ccc(C)c(COCCOCn2ccc(N)nc2=O)c1`, the GI50 in the assay on T47D, in the assay on SF-539, in the assay with OVCAR-3, in the assay on MDA-MB-435, with UO-31 and in the assay on K562 was > 100 µM (inactive) throughout. Also, the GI50 in the assay with HOP-62, in the assay on BT-549, in the assay on EKVX, in the assay with SN12C, with SK-OV-3 and with U-251 was > 100 µM (inactive) throughout. For the same compound, the GI50 in the assay with RXF 393, in the assay with UACC-257, with SF-268, in the assay on CAKI-1, in the assay with SNB-19 and in the assay with MDA-N was > 100 µM (inactive) each time. Moreover, the GI50 in the assay on OVCAR-5 and in the assay with MOLT-4 was > 100 µM (inactive) in each case.
With `O=S(=O)(O)c1ccc2c(/N=N/c3ccc(/N=N/c4ccccc4)cc3)c(O)c(S(=O)(=O)O)cc2c1`, the GI50 with T47D, with SF-539, in the assay on OVCAR-3, in the assay with MDA-MB-435, in the assay on UO-31 and in the assay with K562 was > 100 µM (inactive) each time. The GI50 in the assay on HOP-62, with BT-549, in the assay with EKVX, with SN12C, in the assay with SK-OV-3 and in the assay on U-251 was > 100 µM (inactive) each time. The GI50 with RXF 393, in the assay with UACC-257, with SF-268, with CAKI-1, with SNB-19 and with MDA-N was > 100 µM (inactive) each time. Besides, the GI50 with OVCAR-5 and with MOLT-4 was > 100 µM (inactive) each time.
For `COc1ccc2oc(=N)c(C(=O)NCc3ccccc3)cc2c1`, the GI50 with T47D was 15 µM (inactive); in the assay with SF-539, 25.2 µM (inactive); with OVCAR-3 it was 18.8 µM (inactive); with MDA-MB-435, 14.5 µM (inactive); with UO-31 it was 46.6 µM (inactive); with K562 it was 41.6 µM (inactive). For the same compound, the GI50 with HOP-62 is 21.2 µM (inactive); with BT-549, 17.7 µM (inactive); in the assay on EKVX it was 31.2 µM (inactive); in the assay on SN12C, 32.2 µM (inactive); in the assay on SK-OV-3 it was 20.3 µM (inactive); in the assay on U-251, 16.9 µM (inactive). Besides, the GI50 in the assay on RXF 393 was 16.8 µM (inactive); in the assay with UACC-257 it was 24.8 µM (inactive); with SF-268 it was 18.8 µM (inactive); with CAKI-1, 34.6 µM (inactive); in the assay with SNB-19, 27.4 µM (inactive); with MDA-N, 19.8 µM (inactive). The GI50 is 43.6 µM (inactive) with OVCAR-5 and 46.3 µM (inactive) with MOLT-4.
Regarding `COc1cc(/C=C/C=C2\CC/C(=C\C=C\c3ccc(O)c(OC)c3)C2=O)ccc1O`, the GI50 with T47D is > 100 µM (inactive); in the assay with SF-539 it was > 100 µM (inactive); in the assay with OVCAR-3, > 100 µM (inactive); in the assay with MDA-MB-435 it was > 52.4 µM (inactive); in the assay on UO-31, > 82 µM (inactive); in the assay on K562 it was 15.2 µM (inactive). In addition, the GI50 in the assay with HOP-62 is > 100 µM (inactive); in the assay on BT-549 it was > 100 µM (inactive); in the assay on EKVX, > 97.3 µM (inactive); in the assay with SN12C, > 100 µM (inactive); with SK-OV-3 it was > 22.2 µM (inactive); in the assay on U-251, > 100 µM (inactive). Further, the GI50 was 3.87 µM (inactive) with RXF 393; > 100 µM (inactive) with UACC-257; > 100 µM (inactive) with SF-268; > 100 µM (inactive) in the assay on CAKI-1; > 100 µM (inactive) with SNB-19; > 100 µM (inactive) with MDA-N. For the same compound, the GI50 in the assay on OVCAR-5 is > 100 µM (inactive); in the assay on MOLT-4, 1.02 µM (active).
As for `O=C1OC(C2Cc3ccccc3C2=O)c2ccccc21` (stereo not given), the GI50 in the assay on T47D, in the assay on SF-539, with OVCAR-3, with MDA-MB-435, with UO-31 and in the assay with K562 was > 100 µM (inactive) throughout. Further, the GI50 with HOP-62, in the assay on BT-549, in the assay with EKVX, with SN12C, in the assay with SK-OV-3 and in the assay with U-251 was > 100 µM (inactive) throughout. Also, the GI50 in the assay on RXF 393, with UACC-257, with SF-268, with CAKI-1, in the assay with SNB-19 and in the assay on MDA-N was > 100 µM (inactive) throughout. Further, the GI50 in the assay with OVCAR-5 and in the assay on MOLT-4 was > 100 µM (inactive) each time.
Regarding `O=C(c1cccs1)N(C(=O)N1CCC(c2ccccc2)CC1)c1ccccc1`, the GI50 with T47D is 26.1 µM (inactive); in the assay with SF-539 it was > 100 µM (inactive); in the assay on OVCAR-3, 53.6 µM (inactive); in the assay on MDA-MB-435, 29.4 µM (inactive); in the assay on UO-31, 18 µM (inactive); in the assay with K562, 22.7 µM (inactive). The GI50 with HOP-62 was 36 µM (inactive); in the assay with BT-549 it was 27 µM (inactive); with EKVX, 7.67 µM (inactive); in the assay on SN12C, 62.2 µM (inactive); with SK-OV-3, 88.3 µM (inactive); with U-251 it was 46 µM (inactive). In addition, the GI50 was 16.8 µM (inactive) in the assay on RXF 393; 40 µM (inactive) in the assay with UACC-257; 73.6 µM (inactive) in the assay with SF-268; > 100 µM (inactive) in the assay on CAKI-1; > 100 µM (inactive) in the assay with SNB-19; 43.8 µM (inactive) in the assay on MDA-N. For the same compound, the GI50 is > 100 µM (inactive) with OVCAR-5 and 34.8 µM (inactive) with MOLT-4.
For the compound `COc1cc(-c2coc3c(OC)c(OC4OC(CO)C(O)C(O)C4O)c(OC)cc3c2=O)cc(OC)c1C` (stereo not given), the GI50 with T47D was 9.14 µM (inactive); in the assay with SF-539, 3.69 µM (inactive); in the assay with OVCAR-3 it was 7.26 µM (inactive); with MDA-MB-435, 3.85 µM (inactive); in the assay with UO-31, 4.42 µM (inactive); with K562, 7.29 µM (inactive). Besides, the GI50 with HOP-62 was 15.2 µM (inactive); with BT-549, 4.04 µM (inactive); in the assay with EKVX, 11.8 µM (inactive); in the assay on SN12C, 4.07 µM (inactive); in the assay on SK-OV-3, 7.96 µM (inactive); in the assay on U-251 it was 3.7 µM (inactive). For the same compound, the GI50 was 2.56 µM (inactive) in the assay with RXF 393; 14.2 µM (inactive) with UACC-257; 4.84 µM (inactive) with SF-268; 14.7 µM (inactive) with CAKI-1; 6.81 µM (inactive) with SNB-19; 2.21 µM (inactive) in the assay with MDA-N. Besides, the values for the GI50 in the assay on OVCAR-5 and in the assay with MOLT-4 were 14.2 µM (inactive) and 5.9 µM (inactive), respectively.
For `O=C1NCC2(CCN(Cc3ccccc3)CC2)N1`, the GI50 in the assay with T47D, in the assay with SF-539, in the assay on OVCAR-3, in the assay on MDA-MB-435, with UO-31 and with K562 was > 100 µM (inactive) throughout. The GI50 with HOP-62, in the assay with BT-549, in the assay with EKVX, in the assay with SN12C, with SK-OV-3 and in the assay on U-251 was > 100 µM (inactive) in each case. Besides, the GI50 in the assay with RXF 393, in the assay on UACC-257, in the assay with SF-268, in the assay on CAKI-1, in the assay on SNB-19 and with MDA-N was > 100 µM (inactive) in each case. For the same compound, the GI50 with OVCAR-5 and with MOLT-4 was > 100 µM (inactive) in each case.
Turning to `c1c[nH]c(C23C4C5C6C4C2C6C53)n1` (stereo not given), the GI50 in the assay on T47D, in the assay with SF-539, in the assay on OVCAR-3, in the assay with MDA-MB-435, in the assay with UO-31 and in the assay on K562 was > 100 µM (inactive) throughout. Besides, the GI50 with HOP-62, with BT-549, with EKVX, in the assay on SN12C, with SK-OV-3 and with U-251 was > 100 µM (inactive) in each case. For the same compound, the GI50 in the assay with RXF 393, in the assay on UACC-257, in the assay with SF-268, in the assay on CAKI-1, in the assay with SNB-19 and with MDA-N was > 100 µM (inactive) each time. Also, the GI50 in the assay with OVCAR-5 and in the assay on MOLT-4 was > 100 µM (inactive) each time.
Regarding `CC1CCc2c(c(CC3CC(=O)NC(=O)C3)nn2-c2ccccc2)C1` (stereo not given), the GI50 in the assay on T47D is > 100 µM (inactive); with SF-539, > 100 µM (inactive); with OVCAR-3, > 100 µM (inactive); in the assay on MDA-MB-435 it was > 100 µM (inactive); in the assay on UO-31, 55.6 µM (inactive); with K562, > 100 µM (inactive). The GI50 in the assay with HOP-62, in the assay with BT-549, in the assay with EKVX, in the assay on SN12C, in the assay with SK-OV-3 and in the assay with U-251 was > 100 µM (inactive) throughout. Besides, the GI50 in the assay with RXF 393, in the assay with UACC-257, in the assay with SF-268, in the assay on CAKI-1, in the assay with SNB-19 and in the assay on MDA-N was > 100 µM (inactive) each time. In addition, the GI50 in the assay on OVCAR-5 and in the assay on MOLT-4 was > 100 µM (inactive) in each case.
